Among the data in US20120071475A1, “UREA DERIVATIVES HAVING PI3K-INHIBITING ACTIVITY” (SHIONOGI & CO., LTD., priority 2009, published 2012) are inhibition and MBI values, retold here.

The target in data set [1] is PI3Kγ (Homo sapiens, UniProt P48736). Kind of data set: PI3Kγ inhibitory activity (PI3-kinase HTRF assay, inhibition ratio). In kind it is biochemical. The conditions noted are these: 0.5 h, compound at 10 μmol/L; read-out: PI3Kg Inhibition Ratio % (10 μM). Here is the method:
For each compound synthesized in the above Examples, PI3Kγ inhibitory activity was measured.
The PI3Kγ inhibitory activity of a compound was evaluated using PI3-kinase HTRF™ assay (Millipore) according to the following procedure:
To each well of a testing plate, 5 μL of a compound solution containing 10% DMSO (40 μmol/L as the concentration of the compound), 5 μL of a substrate solution (40 μmol/L phosphatidylinositol (4,5)-bisphosphate, 20 mmol/L MgCl2, 10 mmol/L DTT), and 5 μL of an enzyme solution (80 μg/mL PI-3 kinase y, 10 mmol/L MgCl2, 5 mmol/L DTT) were added, and then allowed to stand for 10 minutes.
Then, 5 μL of a reaction solution (40 μmol/L ATP, 10 mmol/L MgCl2, 5 mmol/L DTT) was added thereto. After reacting for 30 minutes at room temperature, 5 μL of a solution containing EDTA and biotinylated phosphatidylinositol (3,4,5)-triphosphate was added to quench the reaction.
5 μL of a detection reagent containing a europium-labeled anti-GST antibody, the GST-tagged PH domain, and allophycocyanin-labeled streptavidin was added thereto. After 18 hours, HTRF (excitation wavelength: 330 nm, measured wavelengths: 620 nm and 665 nm) was measured.
HTRF ratio was defined as the value obtained by dividing the amount of fluorescence obtained at the measured wavelength 665 nm by the amount of fluorescence obtained at 620 nm. The HTRF ratio in the absence of a compound was defined as 100% activity and the HTRF ratio in the absence of PI-3 kinase y was defined as 0% activity to calculate an inhibition ratio, which was defined as the PI3Kγ inhibitory activity of a compound at 10 μmol/L.
In general terms: TR-FRET usually uses a lanthanide donor and a delayed reading to cut background.

Data set [2] addresses T1, CYP3A4 (Homo sapiens, UniProt P08684).
T1 construct: host or cells: E. coli
Kind of data set: CYP3A4 fluorescence MBI test. The class given is in vitro ADME. The conditions noted are these: difference in IC50 with 0 or 30 minutes pre-reaction; CYP3A4 expressed in E. coli, substrate 7-BFC. Here is the method:
The CYP3A4 fluorescence MBI test is a test to examine the enhancement of CYP3A4 inhibition of a compound by a metabolic reaction. The test was performed using as an index, a reaction to produce a metabolite 7-hydroxytrifluoromethylcoumarin (HFC) which emits fluorescence, in which CYP3A4 expressed in E. coli was used as an enzyme and 7-benzyloxytrifluoromethylcoumarin (7-BFC) is debenzylated by CYP3A4 enzyme.
The reaction conditions are as follows: substrate: 5.6 μmol/L 7-BFC; pre-reaction time; 0 or 30 minutes; reaction time: 15 minutes; reaction temperature: 25° C. (room temperature); content of CYP3A4 (an enzyme expressed in E. coli): […] at the time of a pre-reaction and […] (when diluted 10 times) at the time of a reaction; the concentrations of a test drug: 0.625, 1.25, 2.5, 5, 10, and 20 μmol/L (6 points).
In a 96-well plate, an enzyme solution and a test drug solution were added as a pre-reaction solution into K-Pi buffer solution (pH 7.4) in the aforementioned ratio. A portion thereof was transferred to another 96-well plate to be diluted ten times with a substrate and a K-Pi buffer solution. A coenzyme, NADPH, was then added to start a reaction, which is the index (this is without a pre-reaction). After reacting for a predetermined time, 4:1 of acetonitrile: 0.5 mol/L Tris (trishydroxyaminomethane) was added to quench the reaction. To the remaining pre-reaction solution, NADPH was added to start a pre-reaction (this is with a pre-reaction). After pre-reacting for a predetermined time, a portion thereof was transferred to another plate to be diluted ten times with a substrate and K-Pi buffer solution, and thereby the index reaction is started. After reacting for a predetermined time, 4:1 of acetonitrile:0.5 mol/L Tris (trishydroxyaminomethane) was added to quench the reaction. For each plate in which the index reaction was carried out, the fluorescence value of a metabolite 7-HFC was measured with a fluorescent plate reader (Ex=420 nm, Em=535 nm).
The case wherein only DMSO (a solvent which dissolved a drug) was added to a reaction system was defined as a control (100%). When a test drug solution was added, the remaining activity (%) at each concentration was calculated, and then IC50 was calculated with a concentration and an inhibition ratio by an inverse estimation using a logistic model. When the difference in IC50 value is 5 μmol/L or more, the compound is shown as (+). When 3 μmol/L or less, the compound is shown as (−).

The structures appear in SMILES notation.

PI3Kγ, sequence (P48736 whole entry, species assumed): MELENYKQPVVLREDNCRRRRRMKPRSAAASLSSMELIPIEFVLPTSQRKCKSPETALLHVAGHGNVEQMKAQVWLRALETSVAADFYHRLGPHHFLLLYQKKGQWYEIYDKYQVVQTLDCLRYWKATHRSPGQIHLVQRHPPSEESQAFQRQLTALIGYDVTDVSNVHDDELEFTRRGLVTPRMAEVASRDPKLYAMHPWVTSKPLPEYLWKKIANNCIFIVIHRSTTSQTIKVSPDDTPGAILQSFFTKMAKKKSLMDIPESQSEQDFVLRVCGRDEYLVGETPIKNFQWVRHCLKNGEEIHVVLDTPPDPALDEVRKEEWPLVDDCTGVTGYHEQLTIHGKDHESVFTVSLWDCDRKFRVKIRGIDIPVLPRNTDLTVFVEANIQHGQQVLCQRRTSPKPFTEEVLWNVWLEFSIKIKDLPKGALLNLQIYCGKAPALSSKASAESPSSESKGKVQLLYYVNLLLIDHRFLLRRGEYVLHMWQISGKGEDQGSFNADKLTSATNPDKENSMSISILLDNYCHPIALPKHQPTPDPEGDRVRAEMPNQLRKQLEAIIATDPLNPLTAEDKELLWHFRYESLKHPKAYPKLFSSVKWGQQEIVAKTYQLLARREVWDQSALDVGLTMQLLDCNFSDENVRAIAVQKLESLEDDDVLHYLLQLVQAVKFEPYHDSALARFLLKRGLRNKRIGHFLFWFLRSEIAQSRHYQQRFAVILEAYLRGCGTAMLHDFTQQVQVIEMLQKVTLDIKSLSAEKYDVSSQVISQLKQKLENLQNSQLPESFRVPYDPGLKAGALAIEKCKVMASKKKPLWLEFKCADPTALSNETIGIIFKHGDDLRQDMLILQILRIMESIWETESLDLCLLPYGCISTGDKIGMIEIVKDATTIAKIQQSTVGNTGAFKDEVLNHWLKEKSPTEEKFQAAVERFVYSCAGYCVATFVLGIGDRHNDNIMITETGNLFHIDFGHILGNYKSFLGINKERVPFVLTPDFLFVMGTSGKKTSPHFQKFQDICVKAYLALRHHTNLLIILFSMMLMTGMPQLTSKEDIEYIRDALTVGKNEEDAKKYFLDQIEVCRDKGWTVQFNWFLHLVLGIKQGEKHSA
T1 sequence (P08684 whole entry): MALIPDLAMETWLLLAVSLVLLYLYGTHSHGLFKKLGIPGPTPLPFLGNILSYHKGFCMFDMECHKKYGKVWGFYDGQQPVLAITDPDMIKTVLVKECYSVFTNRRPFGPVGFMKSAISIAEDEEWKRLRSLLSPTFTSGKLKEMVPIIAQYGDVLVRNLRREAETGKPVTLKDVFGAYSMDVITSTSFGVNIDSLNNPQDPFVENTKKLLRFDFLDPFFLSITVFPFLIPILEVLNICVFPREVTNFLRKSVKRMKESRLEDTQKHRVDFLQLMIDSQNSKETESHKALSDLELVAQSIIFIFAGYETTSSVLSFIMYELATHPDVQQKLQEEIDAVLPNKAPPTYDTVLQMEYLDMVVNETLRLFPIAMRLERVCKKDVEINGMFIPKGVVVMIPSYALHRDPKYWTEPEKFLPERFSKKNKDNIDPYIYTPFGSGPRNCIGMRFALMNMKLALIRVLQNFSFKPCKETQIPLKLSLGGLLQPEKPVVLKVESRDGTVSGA

Regarding `COc1cc(N2CCc3nc(NC(=O)Nc4ccccc4C(=O)NC4(C#N)CC4)sc3C2)nc(OC)n1` [Compound I-20], the inhibition at 10 µM in data set [1] is at least 95%. Further, the MBI result in data set [2] is reported as “(−) (When 3 μmol/L or less, the compound is shown as (−))”.

For the compound `COc1cc(N2CCc3nc(NC(=O)Nc4cccnc4C(=O)NC(C)(C)C)sc3C2)nc(OC)n1` [Compound I-22], in data set [1], the inhibition at 10 µM was at least 95%. Also, the MBI entry in data set [2] is recorded as “(−) (When 3 μmol/L or less, the compound is shown as (−))”.

With `COc1cc(N2CCc3nc(NC(=O)Nc4cnccc4C(=O)NC(C)(C)C)sc3C2)nc(OC)n1` [Compound I-23], the inhibition at 10 µM in data set [1] is at least 95%. Also, the MBI result in data set [2] is “(−) (When 3 μmol/L or less, the compound is shown as (−))”.

Turning to `COc1cc(N2CCc3nc(NC(=O)Nc4cccnc4C(=O)N(C)C(C)C)sc3C2)nc(OC)n1` [Compound I-24], the inhibition at 10 µM in data set [1] is at least 95%. Also, the MBI result in data set [2] is “(−) (When 3 μmol/L or less, the compound is shown as (−))”.

As for `COc1cc(N2CCc3nc(NC(=O)Nc4ccccc4C(F)(F)F)sc3C2)nc(OC)n1` [Compound I-33], in data set [2], the MBI result is on record as “(−) (When 3 μmol/L or less, the compound is shown as (−))”.

Consider `COc1cc(N2CCc3nc(NC(=O)Nc4ccccc4OC(F)(F)F)sc3C2)nc(OC)n1` [Compound I-34], for which, in data set [2], the MBI entry was “(−) (When 3 μmol/L or less, the compound is shown as (−))”.

For the compound `COc1cc(N2CCc3nc(NC(=O)Nc4ccccc4OCc4ccccc4)sc3C2)nc(OC)n1` [Compound I-39], in data set [2], the MBI entry is recorded as “(−) (When 3 μmol/L or less, the compound is shown as (−))”.

Take `COc1cc(N2CCc3nc(NC(=O)Nc4ccccc4C(C)(C)C)sc3C2)nc(OC)n1` [Compound I-40]: the MBI entry in data set [2] is recorded as “(−) (When 3 μmol/L or less, the compound is shown as (−))”.

In the case of `COc1cncc(N2CCc3nc(NC(=O)Nc4ccccc4C(=O)NC(C)C)sc3C2)c1` [Compound I-49], the MBI entry in data set [2] is listed as “(−) (When 3 μmol/L or less, the compound is shown as (−))”.

`COc1cc(N2CCc3nc(NC(=O)Nc4ccccc4C(=O)NCC(C)C)sc3C2)nc(OC)n1` [Compound I-58]: the MBI entry in data set [2] is reported as “(−) (When 3 μmol/L or less, the compound is shown as (−))”.

For `COc1cc(N2CCc3nc(NC(=O)Nc4ccccc4C(=O)NCCC(C)C)sc3C2)nc(OC)n1` [Compound I-59], in data set [2], the MBI result is reported as “(−) (When 3 μmol/L or less, the compound is shown as (−))”.

On to `COc1cc(OC)nc(N2CCc3nc(NC(=O)Nc4ccccc4C(=O)NC(C)C)sc3C2)c1` [Compound I-62], for which, in data set [2], the MBI result was “(−) (When 3 μmol/L or less, the compound is shown as (−))”.

With `COc1cc(N2CCc3nc(NC(=O)Nc4ccccc4C(=O)CC(C)C)sc3C2)nc(OC)n1` [Compound I-65], in data set [1], the inhibition at 10 µM is at least 95%. Moreover, the MBI result in data set [2] was “(−) (When 3 μmol/L or less, the compound is shown as (−))”.

Take `COc1cc(N2CCc3nc(NC(=O)Nc4cccc(F)c4C(=O)NC(C)C)sc3C2)nc(OC)n1` [Compound I-75]: in data set [2], the MBI entry is “(−) (When 3 μmol/L or less, the compound is shown as (−))”.

Consider `COc1cncc(C2(F)CCc3nc(NC(=O)Nc4ccccc4C(=O)NC(C)C)sc3C2)c1` (centres unmarked) [Compound I-79], for which the MBI entry in data set [2] is “(−) (When 3 μmol/L or less, the compound is shown as (−))”.

In the case of `CC(C)NC(=O)c1ccccc1NC(=O)Nc1nc2c(s1)CN(c1ccnc(Cl)n1)CC2` [Compound I-98], the inhibition at 10 µM in data set [1] is at least 95%. Also, the MBI entry in data set [2] is “(−) (When 3 μmol/L or less, the compound is shown as (−))”.

As to `Cc1cc(N2CCc3nc(NC(=O)Nc4cn(C)nc4C(=O)NC(C)C)sc3C2)nc(C#N)n1` [Compound I-186], in data set [1], the inhibition at 10 µM worked out at 91%. Further, in data set [2], the MBI result is on record as “(−) (When 3 μmol/L or less, the compound is shown as (−))”.

As to `CS(=O)(=O)c1cccc(N2CCc3nc(NC(=O)Nc4ccccc4C(=O)NCC#N)sc3C2)c1` [Compound I-200], the inhibition at 10 µM in data set [1] was at least 95%. For the same compound, the MBI entry in data set [2] is on record as “(−) (When 3 μmol/L or less, the compound is shown as (−))”.
